Source: ChEMBL document CHEMBL1131475, “Discovery of ritonavir, a potent inhibitor of HIV protease with high oral bioavailability and clinical efficacy” (J Med Chem, 1998)

Assays:
in vivo [1] = conditions: rat, plasma, po
in vivo [2] = conditions: rat, plasma, po, 10 mg/kg
Rattus norvegicus = species: Rattus norvegicus; assay: Plasma T1/2 in rat; type: ADME, organism-based; conditions: in vivo
in vivo [3] = conditions: rat, plasma, po; remark: listed apart in the source
[4] = Oral bioavailability in rat; type: ADME, organism-based; conditions: in vivo
in vivo [5] = conditions: rat, plasma, iv

| AUC (in vivo [1]) [µg·h/mL] | Cmax (in vivo [2]) [µM] | T1/2 (Rattus norvegicus) | Tmax (in vivo [3]) [min] | bioavailability [4] [%] | half-life (in vivo [5]) [min] | F [4] [%] | SMILES |
| --- | --- | --- | --- | --- | --- | --- | --- |
| 0.04 | 0.17 | Not soluble | 6 | – | – | – | CC(C)C(NC(=O)OCc1csc(N2CCOCC2)n1)C(=O)N[C@@H](Cc1ccccc1)C[C@H](O)[C@H](Cc1ccccc1)NC(=O)OCc1cncs1 (some centres undefined) |
| 0.02 | 0.16 | Not soluble | 8.4 | – | – | – | Cc1cccc(COC(=O)NC(C(=O)N[C@@H](Cc2ccccc2)C[C@H](O)[C@H](Cc2ccccc2)NC(=O)OCc2ccoc2)C(C)C)n1 (some centres undefined) |
| – | – | Not soluble | – | 0 | – | – | CCN(Cc1csc(C(C)C)n1)C(=O)NC(C)C(=O)N[C@@H](Cc1ccccc1)C[C@H](O)[C@H](Cc1ccccc1)NC(=O)OCc1cncs1 (some centres undefined) |
| 9.85 | 3.33 | Not soluble | 228 | – | – | – | CCN(Cc1csc(C(C)C)n1)C(=O)NC(C(=O)N[C@@H](Cc1ccccc1)C[C@H](O)[C@H](Cc1ccccc1)NC(=O)OCc1cncs1)C(C)C (some centres undefined) |
| – | – | Not soluble | – | – | – | – | CC(C)C(NC(=O)OCc1csc(N2CCOCC2)n1)C(=O)N[C@@H](Cc1ccccc1)[C@@H](O)C[C@H](Cc1ccccc1)NC(=O)OCc1cncs1 (some centres undefined) |
| 1.49 | 2.98 | Not soluble | 8.4 | – | – | – | CC(C)C(NC(=O)OCc1ccccn1)C(=O)N[C@@H](Cc1ccccc1)[C@@H](O)C[C@H](Cc1ccccc1)NC(=O)OCc1cncs1 (some centres undefined) |
| 0.01 | 0.04 | Not soluble | 6 | – | – | – | CC(C)c1nc(COC(=O)NC(C(=O)N[C@@H](Cc2ccccc2)C[C@H](O)[C@H](Cc2ccccc2)NC(=O)OCc2cncs2)C(C)C)cs1 (some centres undefined) |
| – | – | Not soluble | – | 0 | – | – | CC(C)c1nc(CCOC(=O)NC(C(=O)N[C@@H](Cc2ccccc2)[C@@H](O)C[C@H](Cc2ccccc2)NC(=O)OCc2cncs2)C(C)C)cs1 (some centres undefined) |
| – | – | Not soluble | – | 0 | – | – | CC(C)c1nc(COC(=O)NC(C(=O)N[C@@H](Cc2ccccc2)[C@@H](O)C[C@H](Cc2ccccc2)NC(=O)OCc2cncs2)C(C)C)cs1 (some centres undefined) |
| 1.53 | 0.96 | Not soluble | – | – | – | – | Cc1ncsc1CCOC(=O)NC(C(=O)N[C@@H](Cc1ccccc1)C[C@H](O)[C@H](Cc1ccccc1)NC(=O)OCc1cccnc1)C(C)C (some centres undefined) |
| 0.21 | 1.03 | – | 12 | 4.5 | 13.8 | – | CC(C)C(NC(=O)OCc1cnccn1)C(=O)N[C@@H](Cc1ccccc1)[C@@H](O)C[C@H](Cc1ccccc1)NC(=O)OCc1cccnc1 (some centres undefined) |
| 0.31 | 0.31 | – | 15 | 8.3 | 78.6 | – | CC(C)c1cccc(COC(=O)NC(C(=O)N[C@@H](Cc2ccccc2)[C@@H](O)C[C@H](Cc2ccccc2)NC(=O)OCc2cccnc2)C(C)C)n1 (some centres undefined) |
| 0.41 | 0.32 | – | 6 | 9 | 54.6 | – | CC(C)c1nc(CCC(=O)NC(C(=O)N[C@@H](Cc2ccccc2)[C@@H](O)C[C@H](Cc2ccccc2)NC(=O)OCc2cccnc2)C(C)C)cs1 (some centres undefined) |
| 0.63 | 1.79 | – | 13.8 | 10 | 16.2 | – | COCc1nc(COC(=O)NC(C(=O)N[C@@H](Cc2ccccc2)[C@@H](O)C[C@H](Cc2ccccc2)NC(=O)OCc2cccnc2)C(C)C)cs1 (some centres undefined) |
| 0.03 | 0.14 | – | 6 | 0.3 | 30 | – | CC(C)C(NC(=O)OCc1cncc(N)c1)C(=O)N[C@@H](Cc1ccccc1)C[C@H](O)[C@H](Cc1ccccc1)NC(=O)OCc1cccnc1 (some centres undefined) |
| 0.05 | 0.44 | – | 6 | 0.8 | 10.2 | – | COc1cncc(CN(C)C(=O)NC(C(=O)N[C@@H](Cc2ccccc2)[C@@H](O)C[C@H](Cc2ccccc2)NC(=O)OCc2cccnc2)C(C)C)c1 (some centres undefined) |
| 0.2 | 0.46 | – | 12 | 5 | 19.8 | – | CC(C)c1nc(COC(=O)NC(C(=O)N[C@@H](Cc2ccccc2)C[C@H](O)[C@H](Cc2ccccc2)NC(=O)OCc2cccnc2)C(C)C)co1 (some centres undefined) |
| 0.18 | 0.49 | – | 6 | 3.8 | 24 | – | CC(C)c1nc(CN(C)C(=O)NC(C(=O)N[C@@H](Cc2ccccc2)C[C@H](O)[C@H](Cc2ccccc2)NC(=O)OCc2ccno2)C(C)C)co1 (some centres undefined) |
| 0.87 | 2.91 | – | 12 | 13 | 21 | – | CC(C)C(NC(=O)N(C)Cc1ccccn1)C(=O)N[C@@H](Cc1ccccc1)[C@@H](O)C[C@H](Cc1ccccc1)NC(=O)OCc1cncnc1 (some centres undefined) |

| AUC (in vivo [1]) [µg·h/mL] | Cmax (in vivo [2]) [µM] | T1/2 (Rattus norvegicus) | Tmax (in vivo [3]) [min] | bioavailability [4] [%] | half-life (in vivo [5]) [min] | F [4] [%] | SMILES |
| --- | --- | --- | --- | --- | --- | --- | --- |
| 14.3 | 5.8 | – | 55.2 | – | 30 | 151 | CC(C)c1csc(COC(=O)NC(C(=O)N[C@@H](Cc2ccccc2)C[C@H](O)[C@H](Cc2ccccc2)NC(=O)OCc2cncs2)C(C)C)n1 (some centres undefined) |
| 0.16 | 0.56 | – | 9 | 3.3 | 25.8 | – | COc1ccc(COC(=O)NC(C(=O)N[C@@H](Cc2ccccc2)[C@@H](O)C[C@H](Cc2ccccc2)NC(=O)OCc2cccnc2)C(C)C)cn1 (some centres undefined) |
| 0.21 | 0.48 | – | 18 | 5.9 | 16.8 | – | Cc1cncc(COC(=O)NC(C(=O)N[C@@H](Cc2ccccc2)[C@@H](O)C[C@H](Cc2ccccc2)NC(=O)OCc2cccnc2)C(C)C)c1 (some centres undefined) |
| 0.51 | 0.83 | – | 19.8 | 9.3 | 21.6 | – | CC(C)C(NC(=O)N(C)Cc1csc(C(C)(C)C)n1)C(=O)N[C@@H](Cc1ccccc1)[C@@H](O)C[C@H](Cc1ccccc1)NC(=O)OCc1cccnc1 (some centres undefined) |
| 1.66 | 3.39 | – | 17.4 | 32 | 40.8 | – | Cc1cccc(CN(C)C(=O)NC(C(=O)N[C@@H](Cc2ccccc2)C[C@H](O)[C@H](Cc2ccccc2)NC(=O)OCc2cccnc2)C(C)C)n1 (some centres undefined) |
| 0.28 | 1.18 | – | 12 | 6.7 | 30 | – | CC(C)C(NC(=O)OCc1ccccn1)C(=O)N[C@@H](Cc1ccccc1)[C@@H](O)C[C@H](Cc1ccccc1)NC(=O)OCc1cncnc1 (some centres undefined) |
| 14.2 | 6.17 | – | 72 | 70 | 48 | – | CCc1nc(CN(C)C(=O)NC(C(=O)N[C@@H](Cc2ccccc2)C[C@H](O)[C@H](Cc2ccccc2)NC(=O)OCc2cncs2)C(C)C)cs1 (some centres undefined) |
| 0.38 | 1.2 | – | 12 | 7.7 | 27.6 | – | COc1ccc(COC(=O)NC(C(=O)N[C@@H](Cc2ccccc2)[C@@H](O)C[C@H](Cc2ccccc2)NC(=O)OCc2cccnc2)C(C)C)nc1 (some centres undefined) |
| 1.05 | 1.49 | – | 15 | 17 | 72 | – | CCc1nc(CN(C)C(=O)NC(C(=O)N[C@@H](Cc2ccccc2)C[C@H](O)[C@H](Cc2ccccc2)NC(=O)OCc2cccnc2)C(C)C)cs1 (some centres undefined) |
| 21.9 | 6.46 | – | 130 | 58 | 66 | – | CC(C)C(NC(=O)N(C)Cc1csc(C2CC2)n1)C(=O)N[C@@H](Cc1ccccc1)C[C@H](O)[C@H](Cc1ccccc1)NC(=O)OCc1cncs1 (some centres undefined) |
| 0.1 | 0.5 | – | 12 | 2.4 | 12 | – | CC(C)C(NC(=O)OCc1cnccn1)C(=O)N[C@@H](Cc1ccccc1)C[C@H](O)[C@H](Cc1ccccc1)NC(=O)OCc1cccnc1 (some centres undefined) |
| 0.47 | 0.59 | – | 12 | 8 | 23.4 | – | CCc1cccc(COC(=O)NC(C(=O)N[C@@H](Cc2ccccc2)C[C@H](O)[C@H](Cc2ccccc2)NC(=O)OCc2cccnc2)C(C)C)n1 (some centres undefined) |
| 0.33 | 1.13 | – | 15 | 6.4 | 18 | – | Cc1ncc(CN(C)C(=O)NC(C(=O)N[C@@H](Cc2ccccc2)C[C@H](O)[C@H](Cc2ccccc2)NC(=O)OCc2cccnc2)C(C)C)nc1C (some centres undefined) |
| 1.7 | 2.29 | – | 105 | 16 | 120 | – | CC(C)c1nc(CN(C)C(=O)NC(C(=O)N[C@@H](Cc2ccccc2)[C@@H](O)C[C@H](Cc2ccccc2)NC(=O)OCc2cncs2)C(C)C)cs1 (some centres undefined) |
| 0.91 | 0.65 | – | 72 | 23 | 26.4 | – | Cc1ncc(COC(=O)N[C@@H](Cc2ccccc2)[C@@H](O)C[C@H](Cc2ccccc2)NC(=O)C(NC(=O)N(C)Cc2csc(C(C)C)n2)C(C)C)s1 (some centres undefined) |
| 0.31 | 1.83 | – | 6 | 7.9 | 19.2 | – | COc1ccc(CN(C)C(=O)NC(C(=O)N[C@@H](Cc2ccccc2)[C@@H](O)C[C@H](Cc2ccccc2)NC(=O)OCc2cccnc2)C(C)C)cn1 (some centres undefined) |
| 7.75 | 2.62 | – | 120 | 78 | 72 | – | CC(C)c1nc(CN(C)C(=O)NC(C(=O)N[C@@H](Cc2ccccc2)C[C@H](O)[C@H](Cc2ccccc2)NC(=O)OCc2cncs2)C(C)C)cs1 (some centres undefined) |
| 0.23 | 0.25 | Not soluble | 16.8 | – | – | – | CC(C)C(NC(=O)OCc1ccccn1)C(=O)N[C@@H](Cc1ccccc1)[C@@H](O)C[C@H](Cc1ccccc1)NC(=O)OCc1ccoc1 (some centres undefined) |
